Reference: patent US10710993B2, “Benzofuran pyrazole amine kinase inhibitor” (Hangzhou REX Pharmaceutical Co., LTD., priority 2016, dated 2020)

Experiments:
Wild-Type ALK = molecular target: T1, Wild-Type ALK (Homo sapiens, UniProt Q9UM73); test: Z'-LYTE (FRET) ALK kinase inhibitory activity; type: biochemical
T1 construct: purchased Life Technology
Experimental: (§1) The kinase activity assay was determined by using kinase assay panel (Life Technology) and the result was in table 1.

TEL-ALK-L1196M-BaF3 = molecular target: T2, TEL-ALK-L1196M-BaF3 (Homo sapiens, UniProt Q9UM73, L1196M, cells depend on it); test: Cell proliferation experiment (Cell-Titer GLO), TEL-ALK-L1196M-BaF3; type: cell-based; conditions: 72 h, read-out: IC50 TEL-ALK L1196M-BaF3
T2 construct: fused on or other part: TEL (ETV6) N-terminal oligomerising part fused before the ALK intracellular/kinase part; P41212 (Transcription factor ETV6)
T2 sequence (Q9UM73 whole entry L1196M, the tested form may be a part): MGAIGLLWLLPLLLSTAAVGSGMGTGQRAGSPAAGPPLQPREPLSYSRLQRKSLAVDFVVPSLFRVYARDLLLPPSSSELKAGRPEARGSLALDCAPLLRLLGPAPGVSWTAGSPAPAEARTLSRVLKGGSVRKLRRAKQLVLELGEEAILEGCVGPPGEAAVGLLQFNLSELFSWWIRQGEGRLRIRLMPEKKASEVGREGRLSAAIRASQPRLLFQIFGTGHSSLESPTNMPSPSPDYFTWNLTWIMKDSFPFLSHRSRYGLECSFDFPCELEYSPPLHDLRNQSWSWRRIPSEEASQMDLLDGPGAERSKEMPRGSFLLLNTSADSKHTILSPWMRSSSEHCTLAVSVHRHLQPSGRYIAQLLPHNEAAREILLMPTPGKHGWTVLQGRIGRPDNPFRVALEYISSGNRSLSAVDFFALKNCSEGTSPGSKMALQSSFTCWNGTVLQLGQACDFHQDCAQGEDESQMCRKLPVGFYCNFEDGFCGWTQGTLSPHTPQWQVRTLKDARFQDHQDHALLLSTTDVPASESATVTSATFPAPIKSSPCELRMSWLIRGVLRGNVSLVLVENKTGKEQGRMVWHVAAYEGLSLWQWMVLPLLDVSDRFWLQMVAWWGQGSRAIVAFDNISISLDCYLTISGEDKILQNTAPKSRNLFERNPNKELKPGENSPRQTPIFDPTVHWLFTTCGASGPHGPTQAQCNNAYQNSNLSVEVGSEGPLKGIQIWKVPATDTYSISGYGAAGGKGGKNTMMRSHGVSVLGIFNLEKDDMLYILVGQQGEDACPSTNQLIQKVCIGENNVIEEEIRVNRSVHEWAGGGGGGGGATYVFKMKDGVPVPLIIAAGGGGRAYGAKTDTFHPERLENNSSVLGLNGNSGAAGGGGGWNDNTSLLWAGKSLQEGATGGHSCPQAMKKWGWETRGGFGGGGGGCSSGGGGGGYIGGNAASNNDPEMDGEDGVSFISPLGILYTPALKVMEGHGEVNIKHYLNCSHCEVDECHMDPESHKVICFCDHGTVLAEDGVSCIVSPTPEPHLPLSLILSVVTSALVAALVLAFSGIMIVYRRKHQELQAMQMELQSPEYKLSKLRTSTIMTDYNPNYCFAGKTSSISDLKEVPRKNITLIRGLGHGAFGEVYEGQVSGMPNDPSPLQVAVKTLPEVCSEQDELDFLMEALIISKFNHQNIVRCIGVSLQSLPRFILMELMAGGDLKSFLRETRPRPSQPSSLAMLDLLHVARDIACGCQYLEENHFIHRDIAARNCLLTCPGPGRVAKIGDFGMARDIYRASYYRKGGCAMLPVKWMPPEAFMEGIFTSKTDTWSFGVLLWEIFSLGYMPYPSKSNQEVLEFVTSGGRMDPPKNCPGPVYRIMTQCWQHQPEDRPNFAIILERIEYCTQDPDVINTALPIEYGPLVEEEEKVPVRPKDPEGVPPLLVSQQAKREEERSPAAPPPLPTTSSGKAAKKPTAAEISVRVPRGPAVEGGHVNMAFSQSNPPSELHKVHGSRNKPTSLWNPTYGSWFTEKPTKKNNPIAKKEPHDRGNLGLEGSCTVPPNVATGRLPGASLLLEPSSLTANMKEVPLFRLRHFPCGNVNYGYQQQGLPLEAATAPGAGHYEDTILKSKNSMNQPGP
Experimental: (§2) Cell lines: Karpas-299 and NCI-H3122 which were purchased from the Nanjing kebai biotechnology Co. LTD; TEL-ALK-F1174L-BaF3, TEL-ALK-G1202R-BaF3, TEL-ALK-C1156Y-BaF3 and TEL-ALK-L1196M-BaF3 which were purchased from Hefei zhongkopruisheng biological medicine technology Co. LTD.
(§3) Method: Cells were seeded in 96-well plates for 24 h in growth media containing 10% fetalbovine serum (FBS) and cultured overnight at 37° C. The following day, serial dilutions of compounds or appropriate control were added to the designated wells, and cells were incubated at 37° C. for 72 h. A Cell Titer Glo assay (Promega) was then performed to determine the relative cell numbers. IC50 values were calculated by concentration-response curve fitting using a four-parameter analytical method with Graphpad 6.0.

NCI-H2228 tumor cells = test: Subcutaneous NCI-H2228 lung cancer xenograft model; type: in vivo, BALB/C nude mice
Experimental: BALB/C nude mice were inoculated at the right flank with NCI-H2228 tumor cells to establish the human Lung cancer xenograft model. […] The drug was administered for 14 days and then discontinued for two weeks. The therapeutic effect was evaluated by calculating the relative tumor proliferation rate T/C (%), and the tolerability of treatment was evaluated by the body weight changes and death.
Tumor volume (TV) were measured twice per week in two dimensions using a caliper, and the volume were expressed in mm^3 using the formula: V=0.5 a×b^2 where a and b are the long and short diameters of the tumor, respectively.
Relative tumor volume RTV=Vt/V0, Vt=tumor volume of the drug-treated group on a given day of the study, V0=tumor volume of the drug-treated group on the initial day of dosing.
The T/C value (%) is an indicator of tumor response to treatment, and one of commonly used anti-tumor activity endpoint; T/C %=TRTV/CRTV×100% Relative Tumor Growth Inhibition; % TGI=(1−T/C)×100%;

TEL-ALK-C1156Y-BaF3 = molecular target: T3, TEL-ALK-C1156Y-BaF3 (Homo sapiens, UniProt Q9UM73, C1156Y, cells depend on it); test: Cell proliferation experiment (Cell-Titer GLO), TEL-ALK-C1156Y-BaF3; type: cell-based; conditions: 72 h, read-out: IC50 TEL-ALK C1156Y-BaF3
T3 construct: fused on or other part: TEL (ETV6) N-terminal oligomerising part fused before the ALK intracellular/kinase part; P41212 (Transcription factor ETV6)
T3 sequence (Q9UM73 whole entry C1156Y, the tested form may be a part): as the sequence (Q9UM73 whole entry L1196M, the tested form may be a part) above, with C1156Y, M1196L counted along it
Experimental: (§4) Compounds to be tested: Positive compound Ceritinib and the compounds obtained by the examples of the present invention.
as §2
as §3, with “6.0. Drug inhibition rate (%)=100%−[OD(Compound)−OD(blank)]/[OD(vehicle)−OD(blank)]×100% Equation: […]” for “6.0.”

Karpas-299 = test: Cell proliferation experiment (Cell-Titer GLO), Karpas-299; type: cell-based; conditions: Homo sapiens, 72 h
Experimental: as §4, §2
as §3, with “6.0. Drug inhibition rate (%)=100%−[OD(Compound)−OD(blank)]/[OD(vehicle)−OD(blank)]×100% Equation: […]” for “6.0.”

ALK L1196M = molecular target: T4, ALK L1196M (Homo sapiens, UniProt Q9UM73, L1196M); test: LanthaScreen Eu Kinase Binding Assay (TR-FRET) on ALK mutant
T4 construct: purchased Life Technology
T4 sequence (Q9UM73 19-1620 L1196M): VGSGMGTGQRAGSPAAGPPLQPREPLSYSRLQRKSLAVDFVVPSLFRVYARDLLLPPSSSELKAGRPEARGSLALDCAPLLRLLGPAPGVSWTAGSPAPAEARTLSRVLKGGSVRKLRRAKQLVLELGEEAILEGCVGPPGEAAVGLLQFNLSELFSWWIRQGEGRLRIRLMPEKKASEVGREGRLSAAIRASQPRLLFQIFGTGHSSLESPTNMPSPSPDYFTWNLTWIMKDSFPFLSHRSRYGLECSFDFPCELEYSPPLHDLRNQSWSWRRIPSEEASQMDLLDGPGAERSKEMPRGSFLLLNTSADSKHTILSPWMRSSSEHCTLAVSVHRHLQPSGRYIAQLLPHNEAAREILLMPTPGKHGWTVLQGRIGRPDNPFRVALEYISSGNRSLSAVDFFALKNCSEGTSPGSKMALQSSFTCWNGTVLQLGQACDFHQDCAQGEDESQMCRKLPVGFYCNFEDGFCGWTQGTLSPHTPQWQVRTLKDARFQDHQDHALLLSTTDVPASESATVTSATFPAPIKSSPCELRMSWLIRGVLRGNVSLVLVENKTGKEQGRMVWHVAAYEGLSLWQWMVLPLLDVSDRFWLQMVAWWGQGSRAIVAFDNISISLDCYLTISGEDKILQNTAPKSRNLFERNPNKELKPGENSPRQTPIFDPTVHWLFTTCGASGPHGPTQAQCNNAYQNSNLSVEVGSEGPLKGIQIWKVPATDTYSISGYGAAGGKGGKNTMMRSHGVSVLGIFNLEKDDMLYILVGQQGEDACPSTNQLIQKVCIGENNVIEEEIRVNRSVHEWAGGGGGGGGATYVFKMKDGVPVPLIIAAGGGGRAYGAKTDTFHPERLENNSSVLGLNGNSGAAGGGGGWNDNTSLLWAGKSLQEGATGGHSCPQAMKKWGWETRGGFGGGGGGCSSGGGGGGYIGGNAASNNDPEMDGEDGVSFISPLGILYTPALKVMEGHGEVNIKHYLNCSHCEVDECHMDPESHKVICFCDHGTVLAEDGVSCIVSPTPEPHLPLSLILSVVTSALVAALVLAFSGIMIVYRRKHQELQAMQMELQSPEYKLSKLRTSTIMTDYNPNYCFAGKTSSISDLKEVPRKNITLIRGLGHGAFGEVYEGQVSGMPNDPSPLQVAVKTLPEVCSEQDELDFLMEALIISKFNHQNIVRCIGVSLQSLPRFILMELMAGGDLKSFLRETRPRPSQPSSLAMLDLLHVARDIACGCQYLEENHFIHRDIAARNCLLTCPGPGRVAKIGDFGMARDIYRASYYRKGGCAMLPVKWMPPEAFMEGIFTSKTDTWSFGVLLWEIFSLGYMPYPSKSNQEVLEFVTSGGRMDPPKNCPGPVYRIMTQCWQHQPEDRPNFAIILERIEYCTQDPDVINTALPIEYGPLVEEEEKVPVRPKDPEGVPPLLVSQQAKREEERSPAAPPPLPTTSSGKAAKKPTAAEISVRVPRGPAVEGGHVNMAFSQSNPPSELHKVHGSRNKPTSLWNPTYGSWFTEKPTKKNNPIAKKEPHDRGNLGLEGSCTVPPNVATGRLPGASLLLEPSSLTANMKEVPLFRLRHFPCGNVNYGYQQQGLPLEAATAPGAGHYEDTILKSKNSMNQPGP
Description: Meanwhile, The LanthaScreen® Eu Kinase Binging Assay (TR-FRET) method was used for determining ALK Mutants (such as ALK L1196M) inhibitory activity IC50. LanthaScreen Eu kinase binding experiment detected Alexa Fluor conjugate or kinase “tracer” binding by adding Eu labeled antibodies or anti-label antibodies. The combination of tracer and antibody with kinase leads to a high level of FRET, whereas the use of kinase inhibitors in place of tracer may cause FRET loss.
as §1

TEL-ALK-F1174L-BaF3 = molecular target: T5, TEL-ALK-F1174L-BaF3 (Homo sapiens, UniProt Q9UM73, F1174L, cells depend on it); test: Cell proliferation experiment (Cell-Titer GLO), TEL-ALK-F1174L-BaF3; type: cell-based; conditions: 72 h, read-out: IC50 TEL-ALK F1174L-BaF3
T5 construct: fused on or other part: TEL (ETV6) N-terminal oligomerising part fused before the ALK intracellular/kinase part; P41212 (Transcription factor ETV6)
T5 sequence (Q9UM73 whole entry F1174L, the tested form may be a part): as the sequence (Q9UM73 whole entry L1196M, the tested form may be a part) above, with F1174L, M1196L counted along it
Experimental: as §4, §2
as §3, with “6.0. Drug inhibition rate (%)=100%−[OD(Compound)−OD(blank)]/[OD(vehicle)−OD(blank)]×100% Equation: […]” for “6.0.”

TEL-ALK-G1202R-BaF3 = molecular target: T6, TEL-ALK-G1202R-BaF3 (Homo sapiens, UniProt Q9UM73, G1202R, cells depend on it); test: Cell proliferation experiment (Cell-Titer GLO), TEL-ALK-G1202R-BaF3; type: cell-based; conditions: 72 h, read-out: IC50 TEL-ALK G1202R-BaF3
T6 construct: fused on or other part: TEL (ETV6) N-terminal oligomerising part fused before the ALK intracellular/kinase part; P41212 (Transcription factor ETV6)
T6 sequence (Q9UM73 whole entry G1202R, the tested form may be a part): as the sequence (Q9UM73 whole entry L1196M, the tested form may be a part) above, with M1196L, G1202R counted along it
Experimental: as §4, §2
as §3, with “6.0. Drug inhibition rate (%)=100%−[OD(Compound)−OD(blank)]/[OD(vehicle)−OD(blank)]×100% Equation: […]” for “6.0.”

NCI-H3122 = test: Cell proliferation experiment (Cell-Titer GLO), NCI-H3122; type: cell-based; conditions: Homo sapiens, 72 h
Experimental: as §4, §2
as §3, with “6.0. Drug inhibition rate (%)=100%−[OD(Compound)−OD(blank)]/[OD(vehicle)−OD(blank)]×100% Equation: […]” for “6.0.”

[1] = test system: zebrafish iridophore pigment cells; test: Phenotypic screening of zebrafish: effect on iridophore pigment cells; type: in vivo, Zebrafish (Danio rerio); conditions: for IOD: added at 6 hpf, images at 3 dpf
Description: Zebrafish (Danio rerio) is emerging as a predictive vertebrate animal model for in vivo assessment of drug efficacy, toxicity and safety. An important advantage of the zebrafish animal model is that the morphological and molecular basis of tissues and organs is either identical or similar to other vertebrates, including humans. The sequence and presumed function of many genes that are important for vertebrates are conserved in the zebrafish and the homology is as high as 85%. It has been shown that loss-of-function alleles for leukocyte tyrosine kinase (Ltk), the sister kinase to ALK, lack iridophores in zebrafish (Lopes, S. S., Yang, X., et al. (2008). Leukocyte tyrosine kinase functions in pigment cell development. PLoS Genet, 4.). Iridophores are neural crest-derived pigment cells that are clearly visible as shiny silver cells in the developing zebrafish embryo which distribute in the head, eyes, the lateral spine. ALK and LTK are sister kinase.
Therefore, using this principle, we investigated the effect of the compounds on normal zebrafish iridophore pigment cells to explore the compound's anti-ALK activity in vivo.
Method: Fish eggs of 6 hpf (hours post impurity) were randomly divided into groups. Then, subjects with different concentrations were added and the images were collected at 3 dpf (days post impurity). Then, the IOD (integrated option density) values of zebrafish dorsal iridophore pigment cells from the release pore to the caudal position were analyzed using ImageJ software. The Graphpad prism6.0 was used to conduct statistical analysis on Dunnett's t-test, and p<0.05 indicates statistical difference. The calculation formula of iridophore pigment inhibition rate is as follows: Inhibition rate (%)=[1−IOD(Compound)/IOD(vehicle)]×100%

T1 sequence (Q9UM73 19-1620): as the sequence (Q9UM73 19-1620 L1196M) above, with M1178L counted along it

IC50 (Wild-Type ALK): 13.3 nM | GI50 (TEL-ALK-L1196M-BaF3): 10.5 nM | GI50 (TEL-ALK-C1156Y-BaF3): 10.4 nM | IC50 (Karpas-299): < 10 nM | IC50 (ALK L1196M): 0.695 nM | GI50 (TEL-ALK-F1174L-BaF3): < 10 nM | GI50 (TEL-ALK-G1202R-BaF3): < 50 nM | IC50 (NCI-H3122): 10.6 nM
Compound: Cc1cc(Nc2ncc(Cl)c(Nc3cn(C)nc3S(=O)(=O)C(C)C)n2)c2c(c1C1CCN(C)CC1)C[C@@H](C)O2 [REX-D2, (R)-5-chloro-N^2-(2,5-dimethyl-4-(1-methylpiperidin-4-yl)-2,3-dihydrobenzofuran-7-yl)-N^4-(3-(isopropylsulfonyl)-1-methyl-1H-pyrazol-4-yl)pyrimidine-2,4-diamine]
TGI (NCI-H2228 tumor cells; 30 mg/kg PO QD 14 days, at 14 days after administration): 96.1% | tumor volume (NCI-H2228 tumor cells; 30 mg/kg PO QD 14 days, at 14 days after administration (first day after administration end)): 13 mm^3 | TGI (NCI-H2228 tumor cells; 30 mg/kg PO QD 14 days, end of the experiment (15 days after the administration)): 98.8% | anti-tumor effect (NCI-H2228 tumor cells; 30 mg/kg, once a day, continuously for 14 days): significant anti-tumor effect | IOD ([1]; 5 μM): 420.9 ± 34.1 | IOD ([1]; 10 μM): 173.8 ± 20.5 | IOD ([1]; 15 μM): 64.6 ± 16.1 | IOD ([1]; 20 μM): 24.8 ± 5.8 | inhibition at 5 µM ([1]; Danio rerio, 5 μM, iridophore pigment, 3 dpf, read-out: Inhibition rate %): 38% | inhibition at 10 µM ([1]; Danio rerio, 10 μM, iridophore pigment, 3 dpf, read-out: Inhibition rate %): 75% | inhibition at 15 µM ([1]; Danio rerio, 15 μM, iridophore pigment, 3 dpf, read-out: Inhibition rate %): 91% | inhibition at 20 µM ([1]; Danio rerio, 20 μM, iridophore pigment, 3 dpf, read-out: Inhibition rate %): 96% | inhibition of the formation of iridophore pigment cells ([1]; different doses of concentration): significant inhibition
